# Measured values: ChEMBL document CHEMBL4739716, “Gpr139 receptor modulators” (2020)
# Key:
# [1] = target: T1, Probable G-protein coupled receptor 139 (Rattus norvegicus) (UniProt P0C0W8); experiment: Agonist activity at rat GPR139 expressed in CHO-K1 cells assessed as increase in calcium flux by calcium 5 dye based FLIPR assay relative to JNJ63533054; format: cell-based
# T1 sequence (whole entry): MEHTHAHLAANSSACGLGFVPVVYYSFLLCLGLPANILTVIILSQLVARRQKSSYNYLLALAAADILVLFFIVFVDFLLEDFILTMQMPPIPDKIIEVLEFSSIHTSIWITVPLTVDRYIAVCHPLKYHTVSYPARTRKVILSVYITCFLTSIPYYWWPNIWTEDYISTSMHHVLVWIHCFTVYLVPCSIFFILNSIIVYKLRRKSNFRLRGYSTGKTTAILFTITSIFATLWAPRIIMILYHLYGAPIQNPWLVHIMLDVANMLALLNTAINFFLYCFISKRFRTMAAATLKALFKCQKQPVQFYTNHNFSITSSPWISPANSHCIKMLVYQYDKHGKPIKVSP
# [2] = target: T2, Probable G-protein coupled receptor 139 (Homo sapiens, UniProt Q6DWJ6); experiment: Agonist activity at human GPR139 expressed in CHO-K1 cells assessed as increase in calcium flux by calcium 5 dye based FLIPR assay; format: functional, cell-based
# T2 sequence (Q6DWJ6 whole entry): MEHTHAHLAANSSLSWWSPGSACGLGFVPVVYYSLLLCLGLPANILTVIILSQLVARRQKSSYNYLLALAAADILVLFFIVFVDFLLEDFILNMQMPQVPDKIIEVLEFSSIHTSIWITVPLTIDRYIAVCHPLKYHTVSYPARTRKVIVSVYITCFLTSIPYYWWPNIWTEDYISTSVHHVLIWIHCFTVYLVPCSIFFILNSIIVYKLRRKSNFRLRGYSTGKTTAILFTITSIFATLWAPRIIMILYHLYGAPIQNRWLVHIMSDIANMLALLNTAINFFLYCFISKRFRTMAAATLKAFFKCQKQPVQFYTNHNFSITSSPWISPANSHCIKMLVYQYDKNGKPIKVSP
# [3] = target: T3, Probable G-protein coupled receptor 139 (Rattus norvegicus, UniProt P0C0W8); experiment: Agonist activity at rat GPR139 expressed in CHO-K1 cells assessed as increase in calcium flux by calcium 5 dye based FLIPR assay; format: cell-based
# T3 sequence (P0C0W8 whole entry): T1 sequence (whole entry)
# [4] = target: T4, Probable G-protein coupled receptor 139 (Homo sapiens) (UniProt Q6DWJ6); experiment: Agonist activity at human GPR139 expressed in CHO-K1 cells assessed as increase in calcium flux by calcium 5 dye based FLIPR assay relative to JNJ63533054; format: functional, cell-based
# T4 sequence (whole entry): T2 sequence (Q6DWJ6 whole entry)
# [5] = target: T2, Probable G-protein coupled receptor 139; experiment: Agonist activity at human GPR139 expressed in CHO-K1 cells assessed as induction of beta-arrestin 2 recruitment incubated for 90 mins by PathHunter assay; format: cell-based
# [6] = target: T4, Probable G-protein coupled receptor 139 (Homo sapiens); experiment: Agonist activity at human GPR139 expressed in CHO-K1 cells assessed as induction of beta-arrestin 2 recruitment incubated for 90 mins by PathHunter assay relative to JNJ63533054; format: cell-based
Compound,Emax ([1]; filed as agonist) [%],EC50 ([2]; cho-k1) [nM],EC50 ([3]; cho-k1) [nM],Emax ([4]; filed as agonist) [%],Emax ([6]; filed as agonist) [%],EC50 [2] [nM],EC50 [3] [nM],also measured
C[C@H](NC(=O)Cn1nc2cc(C#N)ccn2c1=O)c1ccc(Cl)c(F)c1,50,1,1,> 80,50,,,EC50 ([5]; cho-k1): 1 nM
C[C@H](NC(=O)Cn1nc2ncccn2c1=O)c1ccc(C2CC2)c(F)c1,,1,10,> 80,50,,,Emax [1]: 25%; EC50 [5]: ≥ 100 nM
C[C@H](NC(=O)Cn1nc2cc(-c3ccccc3)ccn2c1=O)c1ccc(Cl)c(F)c1,> 80,,,> 80,> 80,< 1,< 1,EC50 [5]: < 1 nM
CC(C(=O)N[C@@H](C)c1ccc(Cl)c(F)c1)n1nc2ncccn2c1=O (stereo in doubt; form 1) [listing 1 of 2 here],50,,,> 80,50,,,
CNc1ccnn2c(=O)n(CC(=O)N[C@@H](C)c3ccc(OC(F)(F)F)cc3)nc12,50,,1,> 80,50,< 1,,EC50 ([5]; cho-k1): 10 nM
Cc1ccc2nn(CC(=O)N[C@@H](C)c3ccc(Cl)c(F)c3)c(=O)n2n1,> 80,,,> 80,50,< 1,< 1,EC50 ([5]; cho-k1): 10 nM
Cc1ccc([C@H](C)NC(=O)Cn2nc3cccnn3c2=O)cc1Cl,50,1,1,> 80,> 80,,,EC50 [5]: ≥ 100 nM
Cc1ccc([C@H](C)NC(=O)Cn2nc3ccc(F)cn3c2=O)cc1,> 80,,,> 80,50,< 1,< 1,EC50 ([5]; cho-k1): 10 nM
Cc1ccc([C@H](C)NC(=O)Cn2nc3c(C4CCN(C)C4)cccn3c2=O)cc1 (stereo partly specified),,,,50,,≥ 100,≥ 100,Emax [1]: 25%; EC50 [5]: ≥ 100 nM; Emax [6]: 25%
Cc1ccc([C@H](C)NC(=O)Cn2nc3cccc(F)n3c2=O)cc1,,1,1,> 80,50,,,Emax [1]: 25%; EC50 ([5]; cho-k1): 10 nM
CC(C(=O)N[C@@H](C)c1ccc(Cl)c(F)c1)n1nc2ncccn2c1=O (stereo in doubt; form 2) [listing 1 of 2 here],,,,> 80,50,,,Emax [1]: 25%
CC(C(=O)N[C@@H](C)c1ccc(Cl)c(F)c1)n1nc2ccccn2c1=O (stereo in doubt; form 1) [listing 1 of 2 here],,,,,,< 1,< 1,EC50 [5]: < 1 nM
Cc1ccc([C@H](C)NC(=O)C(C)n2nc3ccccn3c2=O)cc1 (stereo in doubt; form 3),,,,> 80,50,,,Emax [1]: 25%
C[C@H](NC(=O)Cn1nc2c(C(F)(F)F)ccnn2c1=O)c1ccc(Cl)c(F)c1,,,,> 80,50,< 1,,EC50 ([5]; cho-k1): 1 nM
C[C@H](NC(=O)Cn1nc2c(N3CCOCC3)ccnn2c1=O)c1ccc(Cl)c(F)c1,,,,> 80,> 80,< 1,,EC50 [5]: ≥ 100 nM
CC(C(=O)N[C@@H](C)c1ccc(Cl)c(F)c1)n1nc2cccnn2c1=O (stereo in doubt; I-6-2) [listing 1 of 2 here],> 80,,,> 80,50,,,
CC(C(=O)N[C@@H](C)c1ccc(Cl)c(F)c1)n1nc2cccnn2c1=O (stereo in doubt; I-6-2) [listing 2 of 2 here],,1,1,,,,,EC50 ([5]; cho-k1): 10 nM
CC(C(=O)N[C@@H](C)c1ccc(Cl)c(F)c1)n1nc2ncccn2c1=O (stereo in doubt; form 2) [listing 2 of 2 here],,,,,,,≥ 100,EC50 ([5]; cho-k1): 1 nM
CC(C(=O)N[C@@H](C)c1ccc(Cl)c(F)c1)n1nc2cccnn2c1=O (stereo in doubt; I-6-1) [listing 1 of 2 here],50,,,> 80,,,,Emax [6]: 25%
COc1ccnn2c(=O)n(CC(=O)N[C@@H](C)c3ccc(Cl)c(F)c3)nc12,,,,> 80,> 80,< 1,,EC50 ([5]; cho-k1): 1 nM
CC(C(=O)N[C@@H](C)c1ccc(Cl)c(F)c1)n1nc2ccccn2c1=O (stereo in doubt; form 2) [listing 1 of 2 here],,1,1,,,,,EC50 ([5]; cho-k1): 10 nM
CC(C(=O)N[C@@H](C)c1ccc(Cl)c(F)c1)n1nc2ccccn2c1=O (stereo in doubt; form 2) [listing 2 of 2 here],,,,> 80,50,,,Emax [1]: 25%
Cc1ccc([C@H](C)NC(=O)C(C)n2nc3ccccn3c2=O)cc1 (stereo in doubt; form 2) [listing 1 of 2 here],,,,,,,< 1,EC50 [5]: ≥ 100 nM

Compound,Emax ([1]; filed as agonist) [%],EC50 ([2]; cho-k1) [nM],EC50 ([3]; cho-k1) [nM],Emax ([4]; filed as agonist) [%],Emax ([6]; filed as agonist) [%],EC50 [2] [nM],EC50 [3] [nM],also measured
O=C(Cn1nc2cccnn2c1=O)N[C@H](c1ccc(Cl)c(F)c1)C1CC1,,1,,50,,,,EC50 [5]: ≥ 100 nM; Emax [6]: < 25%
CC(C(=O)N[C@@H](C)c1ccc(Cl)c(F)c1)n1nc2cccnn2c1=O (stereo in doubt; I-6-1) [listing 2 of 2 here],,10,10,,,,,EC50 [5]: ≥ 100 nM
CC(C(=O)N[C@@H](C)c1ccc(Cl)c(F)c1)n1nc2ccccn2c1=O (stereo in doubt; form 1) [listing 2 of 2 here],50,,,> 80,> 80,,,
Cc1cc(C)n2c(=O)n(CC(=O)N[C@@H](C)c3ccc(Cl)cc3)nc2n1,,1,,50,,,≥ 100,Emax [1]: < 25%
CNc1ccnn2c(=O)n(CC(=O)N[C@@H](C)c3ccc(Cl)c(F)c3)nc12,,,,> 80,> 80,< 1,,EC50 ([5]; cho-k1): 1 nM
C[C@H](NC(=O)Cn1nc2ccc(C3CC3)nn2c1=O)c1ccc(Cl)c(F)c1,,,,> 80,50,< 1,,EC50 ([5]; cho-k1): 1 nM
Cc1nccn2c(=O)n(CC(=O)N[C@@H](C)c3ccc(OC(F)(F)F)cc3)nc12,> 80,,1,> 80,,< 1,,
C[C@H](NC(=O)Cn1nc2c(I)ccnn2c1=O)c1ccc(Cl)c(F)c1,> 80,,1,> 80,,< 1,,
C[C@H](NC(=O)Cn1nc2cccc(N3CC(O)C3)n2c1=O)c1ccc(OC(F)(F)F)cc1,,,1,50,,< 1,,Emax [1]: 25%
C[C@H](NC(=O)Cn1nc2ccccn2c1=O)c1ccc(-c2ccccc2)cc1,,10,,,,,,Emax [4]: 25%; EC50 [5]: ≥ 100 nM; Emax [6]: < 25%
C[C@H](NC(=O)Cn1nc2ncccn2c1=O)c1ccc(Cl)c(Cl)c1,50,1,10,> 80,,,,
C[C@H](NC(=O)Cn1nc2c(OC3CNC3)nccn2c1=O)c1ccc(Cl)c(F)c1,,,,50,,≥ 100,≥ 100,Emax [1]: 25%
Cc1ccc([C@H](C)NC(=O)C(C)n2nc3ccccn3c2=O)cc1 (stereo in doubt; form 2) [listing 2 of 2 here],> 80,,,> 80,> 80,,,
Cc1ccc([C@H](C)NC(=O)Cn2nc3c(Cl)cccn3c2=O)cc1,50,1,,> 80,,,< 1,
C[C@H](NC(=O)Cn1nc2cccc(N3CC(F)(F)C3)n2c1=O)c1ccc(Cl)c(F)c1,50,,,> 80,,< 1,< 1,
C[C@H](NC(=O)Cn1nc2ncc(F)cn2c1=O)c1ccc(Cl)c(F)c1,> 80,1,1,> 80,,,,
Cc1ccn2c(=O)n(CC(=O)N[C@@H](C)c3ccc(OC(F)(F)F)cc3)nc2n1,,1,,50,,,≥ 100,Emax [1]: < 25%
C[C@H](NC(=O)Cn1nc2ncccn2c1=O)c1ccc(OC(F)F)c(F)c1,,10,,> 80,,,≥ 100,Emax [1]: 25%
Cc1cnc2nn(CC(=O)N[C@@H](C)c3ccc(Cl)c(F)c3)c(=O)n2c1,> 80,1,1,> 80,,,,
Cc1ccc([C@H](C)NC(=O)Cn2nc3cnccn3c2=O)cc1,50,10,,> 80,,,≥ 100,
CC(C(=O)N[C@@H](C)c1ccc(Cl)c(F)c1)n1nc2ncccn2c1=O (stereo in doubt; form 1) [listing 2 of 2 here],,1,10,,,,,EC50 [5]: ≥ 100 nM
C[C@H](NC(=O)Cn1nc2cccc(N3CCN(C)CC3)n2c1=O)c1ccc(Cl)c(F)c1,> 80,1,,> 80,,,≥ 100,
